Key:
Assay type in all cases: in vivo
Lolium rigidum (LOLRI) [1] = experiment: Herbicidal post-emergence action, 1280 g/ha (Table B5); details: visual assessment after ca. 3 weeks vs untreated controls
Description: (§1) Seeds of mono- and dicotyledonous weed plants were sown in plastic pots (double sowings with one species of mono- and one species of dicotyledonous weed plants per pot), in sandy loam, covered with soil and grown under controlled growth conditions. 2 to 3 weeks after sowing, the test plants were sprayed in the single-leaf stage. The compounds according to the invention, formulated in the form of wettable powders (WP) or as emulsifiable concentrates (EC), were sprayed onto the green plant parts as an aqueous suspension or as an emulsion, with the addition of 0.5% of an additive, at an application rate of 600 litres of water per hectare (converted). The test plants were placed in the greenhouse for ca. 3 weeks under optimum growth conditions, and then the effect of the preparations was assessed visually in comparison with untreated controls (herbicidal effect in percent (%): 100% effect=plants have died, 0% effect=as control plants). Tables B1 to B11 below, show the effects of selected compounds of the general formula (I) according to Table 1 on various harmful plants using an application rate corresponding to 1280 g/ha obtained by the experimental procedure mentioned above.

[2] = test system: Amaranthus retroflexus (AMARE); experiment: Herbicidal post-emergence action, 1280 g/ha, AMARE; details: visual grading vs untreated controls
Description: as §1, with “plants).” for “plants). Tables B1 to B11 below, show the effects of selected compounds of the general formula (I) according to Table 1 on various harmful plants using an application rate corresponding to 1280 g/ha obtained by the experimental procedure mentioned above.”
(§2) Tables B1 to B11 below, show the effects of selected compounds of the general formula (I) according to Table 1 on various harmful plants using an application rate corresponding to 1280 g/ha obtained by the experimental procedure mentioned above.

Poa annua (POAAN) = experiment: Herbicidal pre-emergence action, 1280 g/ha (Table A7); details: visual grading after ca. 3 weeks vs untreated controls
Description: (§3) Seeds of mono- and dicotyledonous weed plants were sown in plastic pots (double sowings with one species of mono- and one species of dicotyledonous weed plants per pot), in sandy loam, and covered with soil. The compounds according to the invention, formulated in the form of wettable powders (WP) or as emulsifiable concentrates (EC), were applied to the surface of the covering soil as an aqueous suspension or as an emulsion, with the addition of 0.5% of an additive, at an application rate of 600 litres of water per hectare (converted). Following treatment, the pots were placed in a greenhouse and kept under optimum growth conditions for the test plants. The visual grading of the damage to the test plants was carried out after ca. 3 weeks in comparison to untreated controls (herbicidal effect in percent (%): 100% effect=plants have died, 0% effect=as control plants). Tables A1 to A11 below, show the effects of selected compounds of the general formula (I) according to Table 1 on various harmful plants and an application rate corresponding to 1280 g/ha obtained by the experimental procedure mentioned above.

[3] = test system: Matricaria inodora (MATIN); experiment: Herbicidal post-emergence action, 1280 g/ha (Table B6); details: visual assessment after ca. 3 weeks vs untreated controls
Description: as §1

[4] = test system: Amaranthus retroflexus (AMARE); experiment: Herbicidal post-emergence action, 320 g/ha, AMARE; details: visual grading after ca. 3 weeks
Description: as §1, with “plants).” for “plants). Tables B1 to B11 below, show the effects of selected compounds of the general formula (I) according to Table 1 on various harmful plants using an application rate corresponding to 1280 g/ha obtained by the experimental procedure mentioned above.”
(§4) Tables D1 to D8 below, show the effects of selected compounds of the general formula (I) according to Table 1 on various harmful plants using an application rate corresponding to 320 g/ha obtained by the experimental procedure mentioned above.

Stellaria media (STEME) [5] = experiment: Herbicidal post-emergence action, 1280 g/ha (Table B9); details: visual assessment after ca. 3 weeks vs untreated controls
Description: as §1

Stellaria media (STEME) [6] = experiment: Herbicidal pre-emergence action, 1280 g/ha (Table A9); details: visual grading after ca. 3 weeks vs untreated controls
Description: as §3

Veronica persica (VERPE) [7] = experiment: Herbicidal post-emergence action, 1280 g/ha, VERPE; details: visual grading vs untreated controls
Description: as §1, with “plants).” for “plants). Tables B1 to B11 below, show the effects of selected compounds of the general formula (I) according to Table 1 on various harmful plants using an application rate corresponding to 1280 g/ha obtained by the experimental procedure mentioned above.”
as §2

Lolium rigidum (LOLRI) [8] = experiment: Herbicidal pre-emergence action, 1280 g/ha (Table A5); details: visual grading after ca. 3 weeks vs untreated controls
Description: as §3

Kochia scoparia (KCHSC) [9] = experiment: Herbicidal post-emergence action, 1280 g/ha (Table B4); details: visual assessment after ca. 3 weeks vs untreated controls
Description: as §1

Setaria viridis (SETVI) = experiment: Herbicidal pre-emergence action, 1280 g/ha (Table A8); details: visual grading after ca. 3 weeks vs untreated controls
Description: as §3

[10] = test system: Matricaria inodora (MATIN); experiment: Herbicidal pre-emergence action, 1280 g/ha (Table A6); details: visual grading after ca. 3 weeks vs untreated controls
Description: as §3

Veronica persica (VERPE) [11] = experiment: Herbicidal post-emergence action, 320 g/ha, VERPE; details: visual grading after ca. 3 weeks
Description: as §1, with “plants).” for “plants). Tables B1 to B11 below, show the effects of selected compounds of the general formula (I) according to Table 1 on various harmful plants using an application rate corresponding to 1280 g/ha obtained by the experimental procedure mentioned above.”
as §4

Stellaria media (STEME) [12] = experiment: Herbicidal post-emergence action, 320 g/ha, STEME; details: visual grading after ca. 3 weeks
Description: as §1, with “plants).” for “plants). Tables B1 to B11 below, show the effects of selected compounds of the general formula (I) according to Table 1 on various harmful plants using an application rate corresponding to 1280 g/ha obtained by the experimental procedure mentioned above.”
as §4

[13] = test system: Matricaria inodora (MATIN); experiment: Herbicidal post-emergence action, 320 g/ha, MATIN; details: visual grading after ca. 3 weeks
Description: as §1, with “plants).” for “plants). Tables B1 to B11 below, show the effects of selected compounds of the general formula (I) according to Table 1 on various harmful plants using an application rate corresponding to 1280 g/ha obtained by the experimental procedure mentioned above.”
as §4

[14] = test system: Amaranthus retroflexus (AMARE); experiment: Herbicidal pre-emergence action, 1280 g/ha (Table A11); details: visual grading after ca. 3 weeks vs untreated controls
Description: as §3

Kochia scoparia (KCHSC) [15] = experiment: Herbicidal pre-emergence action, 1280 g/ha (Table A4); details: visual grading after ca. 3 weeks vs untreated controls
Description: as §3

[16] = test system: Abutilon theophrasti (ABUTH); experiment: Herbicidal post-emergence action, 1280 g/ha (Table B1); details: visual assessment after ca. 3 weeks vs untreated controls
Description: as §1

Kochia scoparia (KCHSC) [17] = experiment: Herbicidal post-emergence action, 320 g/ha, KCHSC; details: visual grading after ca. 3 weeks
Description: as §1, with “plants).” for “plants). Tables B1 to B11 below, show the effects of selected compounds of the general formula (I) according to Table 1 on various harmful plants using an application rate corresponding to 1280 g/ha obtained by the experimental procedure mentioned above.”
as §4

[18] = test system: Abutilon theophrasti (ABUTH); experiment: Herbicidal post-emergence action, 320 g/ha, ABUTH; details: visual grading after ca. 3 weeks
Description: as §1, with “plants).” for “plants). Tables B1 to B11 below, show the effects of selected compounds of the general formula (I) according to Table 1 on various harmful plants using an application rate corresponding to 1280 g/ha obtained by the experimental procedure mentioned above.”
as §4

[19] = test system: Abutilon theophrasti (ABUTH); experiment: Herbicidal pre-emergence action, 1280 g/ha (Table A1); details: visual grading after ca. 3 weeks vs untreated controls
Description: as §3

Stellaria media (STEME) [20] = experiment: Herbicidal pre-emergence action, 320 g/ha, STEME; details: visual grading after ca. 3 weeks
Description: as §3, with “plants).” for “plants). Tables A1 to A11 below, show the effects of selected compounds of the general formula (I) according to Table 1 on various harmful plants and an application rate corresponding to 1280 g/ha obtained by the experimental procedure mentioned above.”
Tables C1 to C6 below, show the effects of selected compounds of the general formula (I) according to Table 1 on various harmful plants using an application rate corresponding to 320 g/ha obtained by the experimental procedure mentioned above.

Lolium rigidum (LOLRI) [21] = experiment: Herbicidal pre-emergence action, 320 g/ha (Table C2); details: visual grading after ca. 3 weeks vs untreated controls
Description: as §3, with “Tables C1” for “Tables A1”, “to C6” for “to A11”, “plants using” for “plants and”, “to 320” for “to 1280”

SMILES	herbicidal effect LOLRI (Lolium rigidum (LOLRI) [1]) [%]	herbicidal effect AMARE [2] [%]	herbicidal effect MATIN [3] [%]	herbicidal effect AMARE [4] [%]	herbicidal effect STEME (Stellaria media (STEME) [5]) [%]	herbicidal effect STEME (Stellaria media (STEME) [6]) [%]	herbicidal effect VERPE (Veronica persica (VERPE) [7]) [%]	herbicidal effect LOLRI (Lolium rigidum (LOLRI) [8]) [%]	herbicidal effect KCHSC (Kochia scoparia (KCHSC) [9]) [%]	herbicidal effect MATIN [10] [%]	herbicidal effect VERPE (Veronica persica (VERPE) [11]) [%]	herbicidal effect STEME (Stellaria media (STEME) [12]) [%]	herbicidal effect MATIN [13] [%]	herbicidal effect AMARE [14] [%]	herbicidal effect ABUTH [16] [%]	further results
Cc1nn(C)c(=O)c(Oc2ccccc2C(F)(F)F)c1O [Example I-007, 5-hydroxy-2,6-dimethyl-4-[2-(trifluoromethyl)phenoxy]pyridazin-3-one]	90	90	90	90	100	100	90	90	100	–	–	–	–	–	–	herbicidal effect POAAN (Poa annua (POAAN)): 100%
CCOC(=O)Oc1c(C)nn(C)c(=O)c1Oc1ccccc1C(F)(F)F [Example I-009, [1,3-dimethyl-6-oxo-5-[2-(trifluoromethyl)phenoxy]pyridazin-4-yl] ethyl carbonate]	–	–	–	–	–	–	–	–	–	–	–	–	–	–	–	herbicidal effect SETVI (Setaria viridis (SETVI)): 100%
CCOC(=O)Oc1c(C)nn(C)c(=O)c1Oc1ccccc1OC(F)(F)F [Example I-013]	100	90	100	90	100	100	100	100	100	100	90	100	90	90	100	herbicidal effect KCHSC (Kochia scoparia (KCHSC) [15]): 90%; herbicidal effect KCHSC (Kochia scoparia (KCHSC) [17]): 100%
Cc1nn(C)c(=O)c(Oc2cc(F)ccc2C2CC2)c1O [Example I-046]	100	100	100	90	100	100	100	100	90	90	90	90	90	90	100	herbicidal effect ABUTH [18]: 100%; herbicidal effect ABUTH [19]: 90%; herbicidal effect STEME (Stellaria media (STEME) [20]): 100%; herbicidal effect LOLRI (Lolium rigidum (LOLRI) [21]): 90%

— patent US20240239755A1, “SUBSTITUTED PYRIDAZINONES, SALTS OR N-OXIDES THEREOF AND THEIR USE AS HERBICIDALLY ACTIVE SUBSTANCES” (Bayer Aktiengesellschaft, priority 2021, published 2024)
